In one test the target is GST-JAK1 enzyme (Homo sapiens (Human), UniProt P23458). The test is described as follows: JAK1 Kinase Assay Protocol. Type of test: biochemical. Particulars: JAK1 kinase inhibition; read-out: LLE_JAK1 (IC50). The method, then: JAK1 Kinase Assay Protocol
(§1) The assay reactions were performed in U-bottom 384-well plates. […] The reaction was initiated by the combination of GST-JAK1 enzyme with substrates and test compounds. The reactions were incubated at room temperature for 3 hours and terminated by adding 60 μl of 35 mM EDTA to each sample. Each reaction mixture was analyzed on the Caliper LabChip 3000 (Caliper, Hopkinton, Mass.) by electrophoretic separation of the fluorescent substrate and phosphorylated product. […] Compounds were dissolved at 10 mM in dimethylsulfoxide (DMSO) and evaluated at eleven concentrations. IC50 values were derived by non-linear regression analysis.

In a further test the target is GST-JAK3 enzyme (Homo sapiens (Human), UniProt P52333). In words: JAK3 Kinase Assay Protocol (Caliper). Type of test: biochemical. As to conditions: JAK3 kinase inhibition; read-out: LLE_JAK3_FB (IC50). The procedure: JAK3 Kinase Assay Protocol (Caliper)
Chain of GST-JAK3 enzyme (P52333 whole entry): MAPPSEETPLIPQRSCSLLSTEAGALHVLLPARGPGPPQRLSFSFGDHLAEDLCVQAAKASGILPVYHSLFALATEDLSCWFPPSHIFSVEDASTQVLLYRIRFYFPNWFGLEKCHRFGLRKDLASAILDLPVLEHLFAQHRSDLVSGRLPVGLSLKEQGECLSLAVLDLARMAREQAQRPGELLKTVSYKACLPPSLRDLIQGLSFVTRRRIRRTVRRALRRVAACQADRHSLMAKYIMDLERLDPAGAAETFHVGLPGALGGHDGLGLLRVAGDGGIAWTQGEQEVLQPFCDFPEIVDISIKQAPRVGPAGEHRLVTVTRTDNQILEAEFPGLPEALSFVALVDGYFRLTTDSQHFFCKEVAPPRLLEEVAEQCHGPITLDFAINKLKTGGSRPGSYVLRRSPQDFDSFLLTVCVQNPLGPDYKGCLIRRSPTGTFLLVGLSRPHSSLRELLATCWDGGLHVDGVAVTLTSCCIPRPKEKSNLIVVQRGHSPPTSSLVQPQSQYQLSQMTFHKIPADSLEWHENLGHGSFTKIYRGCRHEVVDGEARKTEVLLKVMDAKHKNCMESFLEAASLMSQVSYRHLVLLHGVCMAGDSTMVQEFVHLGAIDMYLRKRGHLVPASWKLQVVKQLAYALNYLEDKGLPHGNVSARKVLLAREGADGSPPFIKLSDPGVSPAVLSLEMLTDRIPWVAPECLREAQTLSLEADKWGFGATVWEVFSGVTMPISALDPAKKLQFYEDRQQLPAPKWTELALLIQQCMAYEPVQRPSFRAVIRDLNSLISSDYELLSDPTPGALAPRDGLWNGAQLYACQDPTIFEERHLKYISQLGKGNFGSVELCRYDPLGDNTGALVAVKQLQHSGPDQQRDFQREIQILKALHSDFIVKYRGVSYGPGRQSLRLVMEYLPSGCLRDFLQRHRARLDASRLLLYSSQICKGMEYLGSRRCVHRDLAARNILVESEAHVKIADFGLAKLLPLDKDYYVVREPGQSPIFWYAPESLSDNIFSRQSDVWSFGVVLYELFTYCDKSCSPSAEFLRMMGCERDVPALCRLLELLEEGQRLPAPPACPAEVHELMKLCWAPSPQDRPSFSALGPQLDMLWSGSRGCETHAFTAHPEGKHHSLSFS
as §1, with “GST-JAK3” for “GST-JAK1”

The structures appear in SMILES notation.

Chain of GST-JAK1 enzyme (P23458 whole entry): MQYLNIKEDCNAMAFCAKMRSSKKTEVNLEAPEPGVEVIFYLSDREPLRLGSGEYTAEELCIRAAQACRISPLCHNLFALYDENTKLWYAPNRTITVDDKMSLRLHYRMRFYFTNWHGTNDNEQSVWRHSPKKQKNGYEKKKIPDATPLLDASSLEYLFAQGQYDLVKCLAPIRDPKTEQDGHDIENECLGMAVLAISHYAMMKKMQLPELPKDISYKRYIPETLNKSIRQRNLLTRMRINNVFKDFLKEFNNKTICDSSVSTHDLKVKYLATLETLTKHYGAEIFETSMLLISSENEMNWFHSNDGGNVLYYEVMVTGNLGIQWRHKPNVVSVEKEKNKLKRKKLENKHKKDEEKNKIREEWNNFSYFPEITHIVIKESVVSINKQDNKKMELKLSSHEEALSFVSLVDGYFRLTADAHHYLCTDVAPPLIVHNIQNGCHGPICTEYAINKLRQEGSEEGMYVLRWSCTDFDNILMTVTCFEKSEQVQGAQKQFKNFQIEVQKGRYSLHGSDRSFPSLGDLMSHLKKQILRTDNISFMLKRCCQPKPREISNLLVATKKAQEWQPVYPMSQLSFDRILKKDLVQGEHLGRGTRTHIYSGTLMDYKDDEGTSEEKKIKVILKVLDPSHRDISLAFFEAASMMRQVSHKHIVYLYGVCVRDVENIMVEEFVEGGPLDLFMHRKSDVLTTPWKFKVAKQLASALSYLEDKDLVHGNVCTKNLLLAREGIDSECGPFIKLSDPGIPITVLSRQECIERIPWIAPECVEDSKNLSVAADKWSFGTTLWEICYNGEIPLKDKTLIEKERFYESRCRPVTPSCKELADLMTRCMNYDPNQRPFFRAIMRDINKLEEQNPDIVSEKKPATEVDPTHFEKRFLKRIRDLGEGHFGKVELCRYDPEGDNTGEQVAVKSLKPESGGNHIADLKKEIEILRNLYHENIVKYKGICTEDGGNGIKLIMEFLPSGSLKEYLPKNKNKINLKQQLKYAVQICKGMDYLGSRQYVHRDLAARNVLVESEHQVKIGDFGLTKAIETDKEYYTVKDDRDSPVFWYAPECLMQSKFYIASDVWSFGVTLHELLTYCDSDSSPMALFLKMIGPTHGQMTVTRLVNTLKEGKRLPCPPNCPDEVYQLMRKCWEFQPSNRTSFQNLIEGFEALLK

In the case of `CCC(=O)N1C[C@H]2C[C@@H](Nc3c(C(N)=O)cnn4cc(-c5ccc(F)nc5)cc34)[C@H](C)[C@H]2C1` [Example 97, 6-(6-fluoropyridin-3-yl)-4-((3aS,4R,5R,6aS)-4-methyl-2-propionyloctahydrocyclopenta[c]pyrrol-5-ylamino)pyrrolo[1,2-b]pyridazine-3-carboxamide], the IC50 (usually the concentration at which inhibition is half-maximal) on GST-JAK1 enzyme turned out to be 3.1 nM; at GST-JAK3 enzyme, 1.4 nM.
Take `CC1(C)CN(c2ccc(C#N)cn2)CC[C@H]1Nc1c(C(N)=O)cnn2cc(N3CC[C@@H](O)C3=O)cc12` [Example 105, 4-((R)-1-(5-cyanopyridin-2-yl)-3,3-dimethylpiperidin-4-ylamino)-6-((R)-3-hydroxy-2-oxopyrrolidin-1-yl)pyrrolo[1,2-b]pyridazine-3-carboxamide]: the half-inhibitory concentration (IC50) stood at 0.7 nM at GST-JAK1 enzyme and 0.2 nM on GST-JAK3 enzyme.
The like results for `CCCC(=O)O[C@H]1CCN(c2cc3c(N[C@@H]4CCN(c5ncc(C#N)cn5)CC4(C)C)c(C(N)=O)cnn3c2)C1=O` [Example 122, (S)-1-(3-carbamoyl-4-(((R)-1-(5-cyanopyrimidin-2-yl)-3,3-dimethylpiperidin-4-yl)amino)pyrrolo[1,2-b]pyridazin-6-yl)-2-oxopyrrolidin-3-yl butyrate] were, in that order, 2.4 nM and 1.4 nM.
With `CC[C@@H]1CN(S(C)(=O)=O)CC[C@H]1Nc1c(C(N)=O)cnn2cc(-c3cnn(CCC#N)c3)cc12` [Example 126, 6-(1-(2-cyanoethyl)-1H-pyrazol-4-yl)-4-((3R,4R)-3-ethyl-1-(methylsulfonyl)piperidin-4-ylamino)pyrrolo[1,2-b]pyridazine-3-carboxamide], the half-maximal inhibitory concentration (IC50) on GST-JAK1 enzyme amounted to 1 nM; on GST-JAK3 enzyme, 1.5 nM.
The like results for `CC[C@@H]1CN(C(=O)[C@@H](O)CC)CC[C@H]1Nc1c(C(N)=O)cnn2cc(-c3cnn(C)c3)cc12` [Example 127, 4-(((3R,4R)-3-ethyl-1-((S)-2-hydroxybutanoyl)piperidin-4-yl)amino)-6-(1-methyl-1H-pyrazol-4-yl)pyrrolo[1,2-b]pyridazine-3-carboxamide] were, in that order, 7.6 nM and 5.6 nM.
Consider `CC[C@@H]1CN(C(=O)C(C)(C)O)CC[C@H]1Nc1c(C(N)=O)cnn2cc(-c3ccnc(C)c3)cc12` [Example 131, 4-((3R,4R)-3-ethyl-1-(2-hydroxy-2-methylpropanoyl)piperidin-4-ylamino)-6-(2-methylpyridin-4-yl)pyrrolo[1,2-b]pyridazine-3-carboxamide], for which the IC50 at GST-JAK1 enzyme was 3.6 nM; at GST-JAK3 enzyme it was 7.1 nM.
On to `CC[C@@H]1CN(C(=O)[C@H](C)O)CC[C@H]1Nc1c(C(N)=O)cnn2cc(-c3ccnc(OC)c3)cc12` [Example 134, 4-((3R,4R)-3-ethyl-1-((S)-2-hydroxypropanoyl)piperidin-4-ylamino)-6-(2-methoxypyridin-4-yl)pyrrolo[1,2-b]pyridazine-3-carboxamide], for which the IC50 at GST-JAK1 enzyme amounted to 4.5 nM; at GST-JAK3 enzyme, 7 nM.
As for `CC[C@@H]1CN(C(=O)[C@H](C)O)CC[C@H]1Nc1c(C(N)=O)cnn2cc(-c3cnn(CC(C)C)c3)cc12` [Example 137, 4-((3R,4R)-3-ethyl-1-((S)-2-hydroxypropanoyl)piperidin-4-ylamino)-6-(1-isobutyl-1H-pyrazol-4-yl)pyrrolo[1,2-b]pyridazine-3-carboxamide], the concentration for half-maximal inhibition (IC50) on GST-JAK1 enzyme turned out to be 2 nM; at GST-JAK3 enzyme, 1.4 nM.
For the compound `CC[C@@H]1CN(C(=O)[C@@H](C)O)CC[C@H]1Nc1c(C(N)=O)cnn2cc(-c3cnn(C)c3)cc12` [Example 152, 4-((3R,4R)-3-ethyl-1-((R)-2-hydroxypropanoyl)piperidin-4-ylamino)-6-(1-methyl-1H-pyrazol-4-yl)pyrrolo[1,2-b]pyridazine-3-carboxamide], the concentration for half-maximal inhibition (IC50) at GST-JAK1 enzyme amounted to 9 nM; on GST-JAK3 enzyme it was 7.8 nM.
With `CC[C@H]1CN(c2ccc(C#N)cn2)C[C@H]1Nc1c(C(N)=O)cnn2cc(-c3ccc(=O)n(C)c3)cc12` [Example 173, 4-((3S,4S)-1-(5-cyanopyridin-2-yl)-4-ethylpyrrolidin-3-ylamino)-6-(1-methyl-6-oxo-1,6-dihydropyridin-3-yl)pyrrolo[1,2-b]pyridazine-3-carboxamide], the IC50 at GST-JAK1 enzyme was found to be 0.8 nM; at GST-JAK3 enzyme, 0.4 nM.
`CC[C@H]1CN(c2ccc(C#N)cn2)C[C@H]1Nc1c(C(N)=O)cnn2cc(-c3cnn(C)c3)cc12` [Example 175, 4-((3S,4S)-1-(5-cyanopyridin-2-yl)-4-ethylpyrrolidin-3-ylamino)-6-(1-methyl-1H-pyrazol-4-yl)pyrrolo[1,2-b]pyridazine-3-carboxamide]: the results for the IC50 on GST-JAK1 enzyme and at GST-JAK3 enzyme were 1.9 nM and 1.5 nM, respectively.
Consider `CC[C@H]1CN(c2ncc(C#N)s2)C[C@H]1Nc1c(C(N)=O)cnn2cc(-c3cnn(C)c3)cc12` [Example 182, 4-((3S,4S)-1-(5-cyanothiazol-2-yl)-4-ethylpyrrolin-3-ylamino)-6-(1-methyl-1H-pyrazol-4-yl)pyrrolo[1,2-b]pyridazine-3-carboxamide], for which the IC50 was found to be 0.8 nM on GST-JAK1 enzyme and 0.3 nM at GST-JAK3 enzyme.
On to `CC[C@H]1CN(c2ncc(C#N)s2)C[C@H]1Nc1c(C(N)=O)cnn2cc(-c3cnn(CC(C)C)c3)cc12` [Example 183], for which the results for the IC50 at GST-JAK1 enzyme and at GST-JAK3 enzyme were 0.8 nM and 0.2 nM, respectively.
On to `C[C@H]1CN(c2ccc(C#N)cn2)C[C@H]1Nc1c(C(N)=O)cnn2cc(-c3cnn(CC(=O)N4CC(F)(F)C4)c3)cc12` [Example 184, 4-(((3S,4S)-1-(5-cyanopyridin-2-yl)-4-methylpyrrolidin-3-yl)amino)-6-(1-(2-(3,3-difluoroazetidin-1-yl)-2-oxoethyl)-1H-pyrazol-4-yl)pyrrolo[1,2-b]pyridazine-3-carboxamide], for which the IC50 at GST-JAK1 enzyme is 0.2 nM; at GST-JAK3 enzyme it was 0.4 nM.
As for `C[C@H]1CN(c2ccc(C#N)cn2)C[C@H]1Nc1c(C(N)=O)cnn2cc(-c3cnn(CC(=O)N4CCC(F)(F)C4)c3)cc12` [Example 185, 4-(((3S,4S)-1-(5-cyanopyridin-2-yl)-4-methylpyrrolidin-3-yl)amino)-6-(1-(2-(3,3-difluoropyrrolidin-1-yl)-2-oxoethyl)-1H-pyrazol-4-yl)pyrrolo[1,2-b]pyridazine-3-carboxamide], the half-maximal inhibitory concentration (IC50) at GST-JAK1 enzyme amounted to 0.3 nM; on GST-JAK3 enzyme, 0.6 nM.
`CNC(=O)Cn1cc(-c2cc3c(N[C@@H]4CN(c5ccc(Cl)cn5)C[C@@H]4C)c(C(N)=O)cnn3c2)cn1` [Example 188, 4-(((3S,4S)-1-(5-chloropyridin-2-yl)-4-methylpyrroldin-3-yl)amino)-6-(1-(2-(methylamino)-2-oxoethyl)-1H-pyrazol-4-yl)pyrrolo[1,2-b]pyridazine-3-carboxamide]: the IC50 on GST-JAK1 enzyme came out at 0.4 nM; on GST-JAK3 enzyme it was 0.5 nM.
The like results for `C[C@H]1CN(C(=O)CC#N)C[C@H]1Nc1c(C(N)=O)cnn2cc(-c3ccnc(F)c3)cc12` [Example 201, 4-(((3S,4S)-1-(2-cyanoacetyl)-4-methylpyrrolidin-3-yl)amino)-6-(2-fluoropyridin-4-yl)pyrrolo[1,2-b]pyridazine-3-carboxamide] were, in that order, 0.5 nM and 1.4 nM.
Regarding `CNC(=O)c1ccc(-c2cc3c(N[C@@H]4CN(C(=O)OC)C[C@@H]4C)c(C(N)=O)cnn3c2)cn1` [Example 213, (3S,4S)-methyl 3-((3-carbamoyl-6-(6-(methylcarbamoyl)pyridin-3-yl)pyrrolo[1,2-b]pyridazin-4-yl)amino)-4-methylpyrrolidine-1-carboxylate], the IC50 on GST-JAK1 enzyme was 4.7 nM; on GST-JAK3 enzyme it was 7.5 nM.

(Values after patent publication US8987268B2, “Pyrrolopyridazine JAK3 inhibitors and their use for the treatment of inflammatory and autoimmune diseases” (Bristol-Myers Squibb Company, priority 2011, dated 2015).)
